# From the supplement of paper PMC10307832
# Experiments:
# Test in all cases: relative viability (nuclei count vs DMSO), 5 days (fraction); higher = more cells survive
# Venetoclax = compound: CC1(C)CCC(CN2CCN(c3ccc(C(=O)NS(=O)(=O)c4ccc(NCC5CCOCC5)c([N+](=O)[O-])c4)c(Oc4cnc5[nH]ccc5c4)c3)CC2)=C(c2ccc(Cl)cc2)C1 [Venetoclax]
# In short: (§1)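 Viability was defined as treated-well nuclei divided by vehicle-well nuclei, with the median taken over replicate plates. Cells from lung cancer lines sat overnight at 37 °C in 1536-well plates, received five √10-spaced library-drug doses by pinning on vehicle-anchored plates, and grew 5 days without medium change before one-step fixation, permeabilisation and Hoechst staining, 4× imaging and MetaXpress nuclear counts. Only plates with control CV under 25% and at least one doubling were kept.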
# Selumetinib = compound: Cn1cnc2c(F)c(Nc3ccc(Br)cc3Cl)c(C(=O)NOCCO)cc21 [Selumetinib]
# In short: as §1
# Venetoclax + OSI-027 = compound: CC1(C)CCC(CN2CCN(c3ccc(C(=O)NS(=O)(=O)c4ccc(NCC5CCOCC5)c([N+](=O)[O-])c4)c(Oc4cnc5[nH]ccc5c4)c3)CC2)=C(c2ccc(Cl)cc2)C1 [Venetoclax] + COc1cccc2cc(-c3nc([C@H]4CC[C@H](C(=O)O)CC4)n4ncnc(N)c34)[nH]c12 [OSI-027] (partner 0.5 µM)
# In short: (§2)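 Lung cancer cell lines in 1536-well plates were dosed by pin tool the day after seeding, either with one drug alone or with a fixed anchor-drug dose plus five library-drug doses (not always all listed) in √10 steps. After 5 days, cells were fixed and their nuclei stained in one step (final 0.05% Triton X-100, 1% formaldehyde, 1 ug/ml Hoechst), then counted on 4× images. Relative viability is the nuclei count in treated wells divided by that in vehicle wells. Values are medians of duplicate plates.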
# Selumetinib + Pemetrexed = compound: Cn1cnc2c(F)c(Nc3ccc(Br)cc3Cl)c(C(=O)NOCCO)cc21 [Selumetinib] + Nc1nc2[nH]cc(CCc3ccc(C(=O)N[C@@H](CCC(=O)O)C(=O)O)cc3)c2c(=O)[nH]1 [Pemetrexed] (partner 0.2 µM)
# In short: as §2
Cell Line,relative viability (Venetoclax; 0.01 µM),relative viability (Venetoclax; 0.03162 µM),relative viability (Venetoclax; 0.1 µM),relative viability (Venetoclax; 0.3162 µM),relative viability (Venetoclax; 1 µM),relative viability (Selumetinib; 0.02 µM),relative viability (Selumetinib; 0.06325 µM),relative viability (Selumetinib; 0.2 µM),relative viability (Selumetinib; 0.6325 µM),relative viability (Venetoclax + OSI-027; first compound 0.01 µM),relative viability (Venetoclax + OSI-027; first compound 0.03162 µM),relative viability (Venetoclax + OSI-027; first compound 0.1 µM),relative viability (Venetoclax + OSI-027; first compound 0.3162 µM),relative viability (Venetoclax + OSI-027; first compound 1 µM),relative viability (Selumetinib + Pemetrexed; first compound 0.02 µM),relative viability (Selumetinib + Pemetrexed; first compound 0.06325 µM),relative viability (Selumetinib + Pemetrexed; first compound 0.2 µM),relative viability (Selumetinib + Pemetrexed; first compound 0.6325 µM)
NCI-H460,0.98,0.965,0.941,0.989,0.923,0.963,0.801,0.823,0.545,0.681,0.592,0.585,0.62,0.515,0.0568,0.082,0.0617,0.0698
NCI-H520,0.923,0.994,0.828,0.971,1,1.12,0.981,1.08,1.04,0.262,0.287,0.209,0.253,0.217,0.654,0.754,0.752,0.731
NCI-H522,0.955,1.02,0.976,0.988,0.982,0.896,0.957,1.02,0.927,0.631,0.759,0.684,0.824,0.6,0.962,0.942,1,0.783
NCI-H596,1.01,0.972,0.941,0.925,0.888,0.9,0.881,0.889,0.729,0.704,0.748,0.694,0.748,0.587,0.485,0.576,0.426,0.494
NCI-H647,1.06,0.991,0.798,1,0.884,0.936,0.797,0.809,0.793,0.69,0.769,0.625,0.589,0.509,0.177,0.178,0.19,0.173
NCI-H650,0.934,1.05,0.876,1.1,0.855,1.1,1.09,1.39,1.26,0.533,0.552,0.561,0.528,0.459,1.05,1.25,1.19,1.16
NCI-H661,0.964,1.07,0.949,0.995,0.966,1.01,0.954,0.979,1,0.682,0.789,0.705,0.681,0.617,0.955,0.875,0.92,0.872
NCI-H838,0.965,1.05,0.948,0.957,0.906,0.853,0.863,0.854,0.743,0.493,0.405,0.37,0.377,0.435,0.234,0.214,0.233,0.242
NCI-H1355,0.957,0.983,1.01,1.03,0.904,0.949,0.85,0.749,0.743,0.409,0.5,0.38,0.386,0.355,1.01,0.881,0.898,0.788
NCI-H1395,1.01,0.99,0.769,1.11,0.922,0.984,0.85,0.892,0.845,0.623,0.603,0.605,0.656,0.662,0.837,0.868,0.694,0.92
NCI-H1437,0.971,1.04,0.989,0.957,0.949,0.911,0.817,0.703,0.53,0.942,0.888,0.845,0.763,0.802,0.302,0.253,0.246,0.259
NCI-H1563,0.999,0.963,0.971,1.04,1.07,0.957,0.868,0.981,0.91,0.836,0.776,0.747,0.773,0.707,0.835,0.778,0.918,0.898
NCI-H1648,0.661,0.966,0.94,0.822,0.791,0.729,0.961,0.904,0.797,0.287,0.24,0.313,0.265,0.256,–,0.838,0.956,0.904
NCI-H1650,0.903,1.02,0.815,1.05,0.768,0.857,0.796,0.837,0.795,0.531,0.856,0.606,0.783,0.529,0.304,0.338,0.331,0.295
NCI-H1651,1.05,1.02,0.971,0.926,0.904,1.03,0.913,0.93,0.963,0.804,0.714,0.62,0.596,0.658,0.623,0.57,0.596,0.626
NCI-H1666,0.915,1.02,0.966,0.933,1.01,0.917,0.94,0.878,0.875,0.699,0.843,0.839,0.733,0.784,0.811,0.775,0.765,0.755
NCI-H1734,0.906,1.03,0.868,0.957,0.912,1,0.936,0.928,0.919,0.616,0.568,0.515,0.57,0.542,0.387,0.373,0.404,0.418

Cell Line,relative viability (Venetoclax; 0.01 µM),relative viability (Venetoclax; 0.03162 µM),relative viability (Venetoclax; 0.1 µM),relative viability (Venetoclax; 0.3162 µM),relative viability (Venetoclax; 1 µM),relative viability (Selumetinib; 0.02 µM),relative viability (Selumetinib; 0.06325 µM),relative viability (Selumetinib; 0.2 µM),relative viability (Selumetinib; 0.6325 µM),relative viability (Venetoclax + OSI-027; first compound 0.01 µM),relative viability (Venetoclax + OSI-027; first compound 0.03162 µM),relative viability (Venetoclax + OSI-027; first compound 0.1 µM),relative viability (Venetoclax + OSI-027; first compound 0.3162 µM),relative viability (Venetoclax + OSI-027; first compound 1 µM),relative viability (Selumetinib + Pemetrexed; first compound 0.02 µM),relative viability (Selumetinib + Pemetrexed; first compound 0.06325 µM),relative viability (Selumetinib + Pemetrexed; first compound 0.2 µM),relative viability (Selumetinib + Pemetrexed; first compound 0.6325 µM)
NCI-H1755,0.996,1.04,0.977,0.995,0.967,0.952,0.963,0.916,0.922,0.73,0.74,0.68,0.757,0.667,0.467,0.409,0.428,0.509
NCI-H1792,0.892,1.06,0.918,0.98,0.856,0.901,0.728,0.827,0.689,0.695,0.751,0.603,0.638,0.721,0.637,0.648,0.634,0.557
NCI-H1793,0.933,0.993,0.787,0.887,0.784,0.709,0.682,0.561,0.457,0.299,0.37,0.207,0.239,0.186,0.782,0.601,0.435,0.517
NCI-H1915,0.954,1.03,0.937,0.991,0.92,1.07,0.84,0.666,0.581,0.587,0.624,0.596,0.612,0.586,0.519,0.449,0.533,0.373
NCI-H1944,1.14,0.937,0.951,1.05,0.891,0.946,0.791,0.673,0.643,0.483,0.431,0.378,0.411,0.376,0.573,0.476,0.405,0.484
NCI-H1975,0.99,0.935,0.889,0.939,0.884,0.952,0.958,0.939,0.663,0.768,0.788,0.667,0.702,0.68,0.288,0.309,0.302,0.283
NCI-H1993,0.892,0.999,0.904,0.91,0.838,0.794,0.727,0.728,0.762,0.562,0.505,0.519,0.486,0.605,0.614,0.571,0.553,0.651
NCI-H2009,1.05,1.01,0.991,0.974,0.882,0.925,0.639,0.574,0.385,0.655,0.668,0.602,0.624,0.573,1.03,0.945,0.792,0.45
NCI-H2023,0.932,1.05,1.05,0.953,0.859,0.987,0.841,0.862,0.758,0.44,0.363,0.313,0.427,0.312,0.247,0.137,0.239,0.195
NCI-H2085,0.873,1.08,1.03,0.969,0.928,0.863,0.844,0.881,0.788,0.838,0.769,0.707,0.746,0.53,0.77,0.789,0.677,0.627
NCI-H2087,0.921,1.03,0.821,1.01,1.02,0.849,0.672,0.48,0.318,0.534,0.735,0.456,0.539,0.435,0.677,0.649,0.591,0.361
NCI-H2126,1,1.07,0.992,0.996,0.953,0.932,0.883,0.857,0.77,0.691,0.794,0.719,0.692,0.636,0.627,0.612,0.684,0.568
NCI-H2170,0.863,0.944,0.904,0.91,0.877,0.982,0.97,0.896,0.937,0.597,0.802,0.552,0.713,0.633,0.236,0.266,0.254,0.265
NCI-H2228,0.942,1.03,0.86,0.891,0.965,0.898,0.958,0.943,0.797,0.423,0.545,0.62,0.546,0.396,0.375,0.394,0.333,0.33
NCI-H2342,1,0.984,1.03,1,0.967,0.888,0.896,0.943,0.946,0.767,0.708,0.554,0.715,0.665,0.778,0.7,0.758,0.839
NCI-H2347,1.06,1.12,0.965,0.978,0.977,0.917,0.667,0.492,0.386,0.32,0.417,0.377,0.485,0.372,0.425,0.402,0.399,0.392
NCI-H2405,1.03,1.14,0.978,0.996,0.914,1.02,0.923,0.861,0.686,0.64,0.711,0.624,0.612,0.619,0.999,0.813,0.75,0.736
